# Experimental data from the METLIN SMRT retention time set (Domingo-Almenara et al. 2019).
# Assay: gradient 5% acetonitrile 3 min, to 50% in 2 min, to 85% in 15 min, held 3 min, 100 µL/min
# Conditions: column: Zorbax Extend-C18 2.1 x 50 mm; eluents: water / acetonitrile, 0.1% formic acid
# Procedure, shortened: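 Retention times of pure standards were taken from adduct peaks that were selected by computer and manually inspected. Over 3 months, mixtures of ~100 molecules were run by HPLC–quadrupole time-of-flight mass spectrometry in positive and negative ionization mode. The Zorbax Extend-C18 column (2.1 × 50 mm, 1.8 μm) ran at 100 μL/min in water and acetonitrile, each containing 0.1% formic acid, with 40 μL dead volume and 900 μL dwell volume.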
row,SMILES,RP-LC retention time
1,COc1cccc(NC(=O)C2CC(=O)N(c3ccc4c(c3)CCN4C(=O)C3CC3)C2)c1 (stereo not drawn),655 s
2,CN1CC(=O)N(CC(=O)N2CCN(c3ccc(Cl)cc3)CC2)c2ccccc2C1=O,746 s
3,CCCn1ccc2sc(C)c(C(=O)N3CCN(c4ccc(F)cc4)CC3)c2c1=O,872 s
4,O=S(=O)(c1cc(-c2cc(C(F)(F)F)on2)cs1)N1CCN(c2ccc(Cl)cc2)CC1,1290 s
5,CCc1ccccc1NC(=O)C1CCCN(S(=O)(=O)c2cn(CC)cn2)C1 (stereo not drawn),726 s
6,CN(C)C[C@@H]1CN(c2ccncn2)C[C@H]1NC(=O)c1ccc2ncccc2c1,652 s
7,COc1ccc(N2CCN(CCNC(=O)c3ccc(S(=O)(=O)N(C)C)cc3)CC2)cc1,589 s
8,COc1ccc(-c2ncc3c(n2)CCN(C(=O)c2c(F)cccc2Cl)C3)cc1,966 s
9,O=C(Cn1cnc2c(sc3nc(-c4ccccc4)ccc32)c1=O)NCc1ccco1,887 s
10,COC(=O)c1cc(S(=O)(=O)N2CCCC2C(=O)Nc2c(Cl)cc(OC)cc2OC)cn1C (stereo not drawn),930 s
11,N#Cc1c(N)sc2c1CCC(c1ccccc1)C2 (stereo not drawn),955 s
12,CN1c2ccc(F)cc2C(=O)NC12CCN(C(=O)c1cccc(F)c1)CC2,751 s
13,Cc1ccc(CNC(=O)C2(C)CCCN(C(=O)NCc3ccc(F)cc3)C2)cc1 (stereo not drawn),864 s
14,CCOc1ccc2nc(NC(=O)C3CCN(S(=O)(=O)c4cn(CC)cn4)CC3)sc2c1,809 s
15,Cc1ccc(C(=O)N2CCn3c(nnc3C(C)C)C2)s1,625 s
16,Cn1nc(C2CC2)nc1C1CN(C(=O)Cc2ccc(S(C)(=O)=O)cc2)C1,611 s
17,COc1cc(C(=O)Nc2sc3c(c2C(N)=O)CC(C)CC3)cc(OC)c1OC (stereo not drawn),1020 s
18,O=C(NCC(c1ccsc1)N1CCc2ccccc2C1)C(=O)Nc1ccon1 (stereo not drawn),572 s
19,O=C(CCCc1nc2cccnc2n1Cc1ccccc1)N1CCN(c2ccccn2)CC1,603 s
20,CCc1noc([C@@H]2CC(F)(F)CN2C(=O)CCn2ccnc2)n1,590 s
21,Cc1[nH]c(C)c(S(=O)(=O)N2CCC(C(=O)NC(C)(C)C)CC2)c1C(=O)N1CCCCC1,710 s
22,Cc1ccc2c(Nc3cc(F)cc(F)c3)c(C(=O)N3CCCC3)cnc2n1,615 s

row,SMILES,RP-LC retention time
1,CCOC(=O)C1=C(CN2CCN(C(C)CC)CC2)NC(=O)NC1c1ccccc1 (stereo not drawn),625 s
2,O=C(CN1C(=O)CCCc2cc(S(=O)(=O)N3CCCCC3)ccc21)N1CCc2ccccc2C1,922 s
3,CCN1C(=O)c2cccnc2Sc2cc(NC(=O)CCc3ccc(OC)cc3)ccc21,855 s
4,CCc1ccccc1NC(=O)Cc1c(C)nn(-c2nc(-c3ccccc3)cs2)c1C,704 s
5,CCCN1C(=O)COc2ccc(-c3noc(CNS(=O)(=O)c4ccc(F)cc4)n3)cc21,884 s
6,CC(C)CN(CC(C)C)c1nc(-c2ccccc2)nc2ccccc12,951 s
7,O=C(Cc1ccc(F)cc1)N1CCN(c2cc(-c3cccs3)[nH]n2)CC1,782 s
8,CC(C)C(NC(=O)c1ccco1)C(=O)N1CCC(c2noc(-c3ccccc3)n2)CC1 (stereo not drawn),920 s
9,Cc1ccc(N2N=NC3C(=O)N(c4ccccc4)C(=O)C32)cc1C (stereo not drawn),1010 s
10,Cc1ccc(C2CC(=O)c3cnc(Nc4nc(C)c5cccc(C)c5n4)nc3C2)cc1 (stereo not drawn),794 s
11,Cc1ccc(C)c(N2CCN(C(=O)c3[nH]c(C)c(S(=O)(=O)N4CCOCC4)c3C)CC2)c1,928 s
12,Cc1scc2nc(C(=O)NC3CCCCC3)nc(N(C)C)c12,652 s
13,CCC(=O)N(C1CCOCC1)C1CCN(S(=O)(=O)c2ccc(F)c(Cl)c2)CC1,884 s
14,CCOc1ccc(-n2nnnc2CNS(=O)(=O)c2cccc(C(F)(F)F)c2)cc1,892 s
15,COC(=O)CNC(=O)N(C)Cc1nc2cc(C(=O)N3CCCC3)ccc2n1C,566 s
16,Cc1ccc(NC(=O)C2(C)Oc3cccnc3N(C(C)C)C2=O)c(C)c1 (stereo not drawn),1040 s
17,CCOc1ccc(CNC(=O)c2cn3c(n2)COCC3)cc1,614 s
18,Cc1nc2cc(N3CC(C(=O)Nc4cccc(C)c4C)CC3=O)ccc2o1 (stereo not drawn),785 s
19,O=C(Cn1nc2c(N3CCCCCC3)nccn2c1=O)Nc1cc(F)ccc1F,731 s
20,Cc1nn(C)c(C)c1S(=O)(=O)N1CCc2nn(Cc3ccccc3)c(=O)n2CC1,714 s
21,CN(C)CCNC(=O)c1ccnc(-c2ccsc2)c1,573 s
22,O=C(c1ccc(F)c(Cl)c1)N1CCN(c2cc(-c3cccs3)[nH]n2)CC1,800 s

row,SMILES,RP-LC retention time
1,O=C(c1ccco1)N1CCN(c2ccc(=O)n(-c3cccc(Cl)c3)n2)CC1,753 s
2,C=CCn1c(=O)c2ccccc2n(Cc2nc(-c3ccccc3C)no2)c1=O,1080 s
3,Cc1noc(-c2ccc(=O)n(Cc3ccccc3C)n2)n1,851 s
4,CCCCC(=O)Nc1ccc2nc(N3CCN(c4cccc(Cl)c4)CC3)cc(C(=O)O)c2c1,758 s
5,Cc1noc(C)c1CNC(=O)Cc1ccccc1Cl,725 s
6,O=c1c2sccc2n(Cc2nc(-c3ccc(Cl)c(F)c3)no2)c(=O)n1-c1ccc(F)cc1,1080 s
7,O=C1NCCCCCCN(C(=O)c2ccoc2)[C@H]2C[C@H](C(=O)N3CCc4ccccc4C3)C[C@@H]12,762 s
8,CC(Cc1ccco1)NC(=O)CN1C(=O)C2CCCCN2c2ccc(S(=O)(=O)N(C)C)cc21 (stereo not drawn),879 s
9,COc1cc(OC)cc(C(=O)NCC(O)Cc2ccccc2)c1 (stereo not drawn),706 s
10,COc1cc(=O)c(C(=O)Nc2ccc(S(N)(=O)=O)cc2)nn1-c1ccc(F)cc1,678 s
11,CCCNC(=O)C1CCCN(c2nc3ncn(CC(=O)Nc4ccc5c(c4)OCO5)c(=O)c3s2)C1 (stereo not drawn),640 s
12,CN(CCCNC(=O)c1ccc2c(c1)N(C)C(=O)C1CCCCN21)Cc1ccccc1 (stereo not drawn),643 s
13,O=C(NCCN1CCN(C(=O)c2cccs2)CC1)Nc1ccc(C(F)(F)F)cc1,586 s
14,CCOC(=O)c1sc2ccccc2c1S(=O)(=O)N1CCC(C(N)=O)(N2CCCCC2)CC1,656 s
15,COc1ccccc1N1CCN(C(=O)C2CCCN(c3nccc4sc(C)cc34)C2)CC1 (stereo not drawn),711 s
16,Cc1ccc(CNC(=O)C(=O)NCC(c2ccc3c(c2)CCCN3C)N2CCOCC2)cc1 (stereo not drawn),610 s
17,O=c1c2nc(-c3ccc4c(c3)OCO4)cn2ccn1-c1ccc(Cl)cc1,834 s
18,CN(Cc1ccc(Cl)cc1)Cc1cc(=O)n2ccccc2n1,602 s
19,CCOC(=O)C(=O)Nc1ccc(C(F)(F)F)cc1,834 s
20,Cc1ccc(C2CC(=O)c3cnc(N4CCN(c5ccccn5)CC4)nc3C2)cc1 (stereo not drawn),727 s
21,Cc1nn(-c2cc(N3CCOCC3)ncn2)c(C)c1CCC(=O)NCc1ccco1,711 s
22,COc1cccc(-c2noc(CCn3nc(-c4ccc5c(c4)OCO5)ccc3=O)n2)c1OC,852 s

row,SMILES,RP-LC retention time
1,COCc1nc(C2CCN(C(=O)c3ccco3)C2)no1 (stereo not drawn),648 s
2,COc1ccc(OC)c(CNS(=O)(=O)c2cccc(-c3nc(-c4ccc(C)cc4)no3)c2)c1,1220 s
3,Cc1ccc(O)c(NC(=O)c2nc3nc(C)cc(C(F)F)n3n2)c1,762 s
4,Cc1ccccc1-c1noc(C2CCCN2C(=O)Nc2cc(F)ccc2F)n1 (stereo not drawn),1080 s
5,Cc1ccc(Nc2nc(C(=O)NC3CCCCCC3)nc3ccccc23)cc1,966 s
6,Cc1ccc(F)cc1NC(=O)Cn1c(=O)nc(N2CCCCC2)c2ccccc21,841 s
7,O=C(Nc1sc2c(c1C(c1ccccn1)N1CCN(c3ccccn3)CC1)CCCC2)c1ccco1 (stereo not drawn),775 s
8,O=S(=O)(Cc1ccc(Cl)cc1)Nc1cccn2ncnc12,800 s
9,O=C(c1ccc2c(c1)OCO2)N1CCC2(CC1)CC(O)CCO2 (stereo not drawn),590 s
10,COc1ccccc1-c1nc(Cn2ccnc2)no1,580 s
11,COc1ccc(-c2cc(N3CCN(C(=O)COc4ccc(Cl)cc4)CC3)ncn2)cc1,738 s
12,CC(C)n1c(=O)c(NCc2cccc(C(F)(F)F)c2)nc2ccncc21,725 s
13,Cc1cccc(-c2nc(C3CCN(S(=O)(=O)c4ccccc4)CC3)no2)c1,1150 s
14,COc1ccccc1CNC(=O)CN1CCCC1=O,631 s
15,COc1ccc2[nH]c(C(=O)Nc3ccccc3)cc2c1,880 s
16,CNC(=O)CSc1nc(-c2ccccc2)c(NC(=O)COc2ccccc2F)s1,806 s
17,NP(=O)(Oc1c2occc2cc2ccc(=O)oc12)N(CCCl)CCCl (stereo not drawn),738 s
18,O=C(Cn1nc(C(=O)N2CCCC2)c2ccccc21)N1CCN(c2cccc(Cl)c2)CC1,942 s
19,O=S(=O)(NCCOc1cc(N2CCCC2)ncn1)c1ccc(Cl)s1,664 s
20,Cc1noc(C)c1S(=O)(=O)N1CCc2nc[nH]c2C1,570 s
21,Cc1noc(-c2cccn2Cc2ccccc2F)n1,1050 s
22,CCN1C(=O)c2ccccc2Sc2cc(-c3noc(CNC(=O)c4cccs4)n3)ccc21,917 s
